Assay results from ChEMBL document CHEMBL2057088 (Bioorg Med Chem, 2012).

Experiments:
Rattus norvegicus [1] = assay: Ex-vivo inhibition of DPP4 in po dosed Wistar rat plasma up to 24 hrs by fluorometry; type: functional, organism-based
Rattus norvegicus [2] = species on record: Rattus norvegicus; assay: animal or person; details: Wistar, Plasma, po, 24 h, read-out: INH

What does the source list for `O=C([C@@H]1C[C@H](N2CCN(c3cc(C(F)(F)F)nc4ccccc34)CC2)CN1)N1CCSC1`?
inhibition (Rattus norvegicus [1]): Dose-dependent effect; inhibition in vivo at 3 µmol/kg (Rattus norvegicus [2]): > 40%
